Experimental findings from patent US20220133894A1, “BISPHOSPHONATE-LINKED COMPOUNDS” (OREGON HEALTH & SCIENCE UNIVERSITY, priority 2019, published 2022) are described below.

Molecules are shown by their SMILES.

One experiment relates to PC3-M cells. The experiment in a line: PCa subcutaneous implantation, tumor growth. The class given is in vivo. Conditions: oral 80 mg KBU2046/kg, weekly intraperitoneal docetaxel 20 mg/kg, KBU2046 added to control or docetaxel treated mice. The method, then: FIG. 1A depicts the effect of chemotherapy on the growth of androgen independent PC3-M PCa cells in vitro. Data are the mean±SEM (N=3 replicates) of cell viability in a 3 day growth assay in the presence of 10 μM KBU2046 or vehicle (control) treated with docetaxel or cabazitaxel. FIG. 1B depicts the effect of chemotherapy on the growth of androgen independent PCa cells in vivo. Mice received subcutaneous implants of PC3-M cells, were monitored until tumors were detectable (250 mm^3), and then treated daily with oral 80 mg KBU2046/kg (46) or vehicle (CO) and with weekly intraperitoneal docetaxel (doc) at 0 or 20 mg/kg, beginning on day 1, and tumor size measured. Data are mean±SEM, with N=20 mice per cohort.
PCa subcutaneous implantation: 2.5×10^5 PC3-M cells in sterile PBS were implanted into the right flank of 6-7 week old male athymic nude mice (Charles River) and tumor growth measurements were performed twice a week as previously described by us (Gordon et al., Chemotherapy-induced monoamine oxidase expression in prostate carcinoma functions as a cytoprotective resistance enzyme and associates with clinical outcomes. PLoS One 9, e104271 (2014)). […] Tumor measurements were obtained in a blinded fashion, and tumor volumes were calculated with the following formula: length×(width)^2×0.5.

The next experiment relates to PC3-M-luc cells. Description: PCa orthotopic implantation, primary tumor growth and lung metastasis. It is filed as in vivo, mice. Here is the method: To assess the efficacy of a spectrum of docetaxel concentrations, mice received orthotopic implants of PC3-M-luc cells, were treated with 0, 10 or 20 mg/kg docetaxel, and tumor growth monitored with weekly IVIS imaging. […] Subsequently, mice with orthotopic implants of PC3-M-luc cells were treated with docetaxel, KBU2046, docetaxel+KBU2046 or vehicle, as denoted, and effects on primary tumor growth and lung metastasis quantified (FIGS. 2A, 2B, and 2C).
Cohorts of N=10 mice bearing orthotopic implants of PC3-M-luc cells were treated daily with 150 mg/kg KUB2046 (46), intraperitoneal docetaxel 7.5 mg/kg weekly (doc), the combination (doc+46), or with oral and intraperitoneal vehicle (CO). KBU2046 treatment began 3 days before implantation and docetaxel began 1 week after. (A) Lung metastasis measured by qPCR for human Alu sequences, expressed as percent control (B) Weekly IVIS imaging of tumor. (C) Tumor weight. * denotes P<0.05 for differences between cohorts denoted by bars. All data are mean±SEM.
PCa orthotopic implantation: Orthotopic implantation of 2.5×10^5 PC3M-luc into 7-8 week old male athymic mice was performed as previously described by us (5, 52 Xu et al., above; and Pavese et al., J Vis Exp, e50873 (2013)). Daily oral gavage treatment with 150 mg/kg KBU2046 or was initiated 3 days prior to implantation and continued throughout the duration of the study. Weekly IP injections with 7.5 mg/kg docetaxel or control were administered beginning one week post implantation. Primary tumor out growth was monitored via weekly IVIS imaging. At the completion of the study the primary tumor was resected and weighed and lungs were resected and snap frozen. To determine the human PCa metastatic burden in each mouse lung, the snap frozen tissue was pulverized, DNA isolated and Alu-sequencing performed as previously described (19). […] (SEQ ID NO: 3). The 144RH probe was labeled with a 5′ fluorescent reporter (6-FAM) and a 3′ fluorescent quencher (Black Hole Quencher). The relative content of human DNA was calculated with using the comparative CT method, CT (sample)-CT(negative control). All samples were run in triplicate and were repeated.

For the next experiment, the system named is VCaP cells. The experiment in a line: SRB growth inhibition assay, VCaP. As to conditions: 10 μM enzalutamide, 10 μM KBU2046 added to control or enzalutamide treated cells, 72 hours. The class given is cell-based, human. Here is the method: (§1) LNCaP or VCaP cells cultured in hormone free media were treated with R1881 (R), KBU2046 (46) and/or enzalutamide (E). (FIGS. 3A and 3B) Effects on AR-responsive gene expression. PSA expression was measured by qRT/PCR, normalized to GAPDH and expressed as a percent of control cells (N=3 replicates); * denotes P<0.05 for groups separated by bar. (FIGS. 3C and 3D) Effects on cell growth. Three day growth assays were performed. Data are the number of viable cells, expressed as % of control (N=3 replicates); * P<0.05 compared to control. (E) Effects on AR activation. Western blots of nuclear (N) and cytoplasmic (C) preparations of cell extracts were probed for AR, laminin 1 or α-tubulin. (FIGS. 3F and 3G) Effects on tumor outgrowth after androgen deprivation therapy. LNCaP/AR-luc cells were implanted subcutaneously (N=6 mice/cohort) or orthotopic (N=15 mice/cohort were implanted; N=5 yielded tumors) into castrate mice, treatment with KBU2046 began as noted, and weekly IVIS imaging performed. Data are tumor size, expressed as luminescence intensity. All data are expressed as mean±SEM.
(§2) Enzalutamide mediated growth inhibition was assessed using Sulforhodamine B (SRB) growth inhibition assays, were performed as previously described (49). In brief, LNCaP and VCaP cells were pre-incubated in charcoal-striped medium for 48 hours and then seeded (1.9×10^4) in 96-well plates. […]

Experiment [1] has as its system prostate specific antigen (PSA). The experiment in a line: PSA expression by qRT/PCR in LNCaP cells. It is filed as cell-based, human. Conditions: LNCaP cells in androgen depleted media. Here is the method: (§3) Cells were cultured in media depleted of androgen and after a washout of 72 hrs were treated with the synthetic androgen R1881, KBU2046, enzalutamide and/or vehicle (control), and resultant effects upon induction of the androgen-responsive gene, prostate specific antigen (PSA) were measured (FIG. 3A).
as §1
(§4) RNA was isolated and qRT/PCR performed as previously described by us (Ding et al., J Biomol Tech 18, 321-330 (2007)). Resultant data were analyzed using the 2^−ΔΔt method (Livak et al., Methods 25, 402-408 (2001)), normalized to GAPDH, for the following primer/probe sets (ABI) PSA (Hs02576345_m1) and GAPDH (Hs99999905_m1). Assays were performed in triplicate, and were repeated.

Another experiment has as its system LNCaP cells. The experiment in a line: SRB growth inhibition assay, LNCaP. It is filed as cell-based, human. Conditions: 10 μM enzalutamide, 10 μM KBU2046 added to control or enzalutamide treated cells, 72 hours. The method, then: as §1, §2
Experiment [2] deals with prostate specific antigen (PSA). The experiment in a line: PSA expression by qRT/PCR in VCaP cells. The class given is cell-based, human. Conditions: VCaP cells in androgen depleted media. Here is the method: as §3, §1, §4

For `CC(=O)O[C@@]12CO[C@@H]1C[C@H](O)[C@@]1(C)C(=O)[C@H](O)C3=C(C)[C@@H](OC(=O)[C@H](O)[C@@H](NC(=O)OC(C)(C)C)c4ccccc4)C[C@@](O)([C@@H](OC(=O)c4ccccc4)[C@H]21)C3(C)C` [docetaxel], the tumor growth entry in the experiment on PC3-M cells is “significantly inhibited”. Also, the “prostate tumor growth kinetics by weekly IVIS imaging” value in the experiment with PC3-M-luc cells (cohorts receiving docetaxel 7.5 mg/kg weekly vs not) was “slower growth”. The “tumor growth by weekly IVIS imaging” value in the experiment with PC3-M-luc cells (orthotopic PC3-M-luc, 0, 10 or 20 mg/kg docetaxel, dose-dependent) is reported as “significantly inhibited”. Moreover, the “decrease of tumor weight compared to control” value in the experiment on PC3-M-luc cells (orthotopic PC3-M-luc, 150 mg/kg KBU2046 daily, docetaxel 7.5 mg/kg weekly) stood at 49%. The “decrease of lung metastasis compared to control (human Alu qPCR)” value in the experiment with PC3-M-luc cells (orthotopic PC3-M-luc, 150 mg/kg KBU2046 daily, docetaxel 7.5 mg/kg weekly intraperitoneal) was found to be 23%.
For `CNC(=O)c1ccc(N2C(=S)N(c3ccc(C#N)c(C(F)(F)F)c3)C(=O)C2(C)C)cc1F` [enzalutamide], the cell growth result in the experiment with VCaP cells and in the experiment on LNCaP cells was “significantly inhibited” each time. In addition, the PSA expression result in experiment [1] and in experiment [2] was “decreased” each time.
